According to patent publication US20160319277A1, “METHODS OF IMPROVED PROTEIN PRODUCTION USING MIRNAs AND SIRNAs” (THE JOHNS HOPKINS UNIVERSITY, priority 2015, published 2016):

Tests used:
[1] = test system: T-REx-293-NTSR1-GFP cells; assay: High-throughput human miRNA mimic library screen, image-based per cell green fluorescence (NTSR1-GFP expression); conditions: per cell green fluorescence intensity; for MAD-based z-score: 72 h after transfection plus 24 h tetracycline induction
Procedure: T-REx-293-NTSR1-GFP cells were screened with a miRNA mimic library (Qiagen) based on Sanger miRBase™ 13.0 and consisting of 875 miRNAs mimics. For transfection, 0.8 pmol of each mimic was spotted to 384 well plate wells (Corning) and 20 μL of serum-free DMEM containing 0.1 μL of Lipofectamine™ RNAiMax (Life Technologies) was then added to each well. This lipid-miRNA mixture was incubated at ambient temperature for 30 min prior to adding 2000 cells in 20 μL of DMEM containing 20% certified FBS (Gibco). Transfected cells were incubated at 37° C. in 5% CO2 for 72 hours and induced with 1 μg/mL tetracycline for 24 hours for NTSR1-GFP expression. Cells were then fixed with 2% paraformaldehyde (Electron Microscopy Sciences), stained with Hoechst™ 33342 (Life Technologies) for 45 minutes and gently washed with PBS. Plates were imaged with an ImageXpress Micro XL™ (Molecular Devices). Total cell number and per cell green fluorescence intensity were calculated using MetaXpress™ software (Molecular Devices) employing the Multi-Wavelength Cell Scoring™ application module. […] A full column of positive control siRNA targeting GFP (GFP-22 siRNA, Qiagen) was also used as on-plate reference for transfection efficiency. The median absolute deviation (MAD)-based z-score was calculated for each sample.

HEK-CMV-Luc2-Hygro cells = assay: High-throughput genome-wide siRNA screen and validation screen for luciferase expression; format: cell-based, human; conditions: for Viable cell density (%) / per cell luciferase yield (%): Table 4, negative control = 100%; for Viable cell density (%) / per cell luciferase yield (%) / per_cell / VIA: primary screen, 72 h; for per_cell / VIA: Table 3; for per_cell: per cell luciferase yield relative to negative control; for VIA: viable cell density as % of negative control; for Luciferase activity (%) / Per cell luciferase yield (%) / Viable cell number (%): Table 6, polyamine pathway gene siRNAs
Outline: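 HEK cells with CMV-driven luciferase were reverse-transfected with 0.8 pmol siRNA per well (3 per gene) via RNAiMax and grown 72 h at 37 °C. Duplicate wells read for luciferase (ONE-Glo) and viability (CellTiter-Glo). Values given as % of plate negative-control median with MAD-based z-scores; hits with ≥2 siRNAs at z>3 retested using 3 new siRNAs.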

| Substance | Signal relative to negative control (%) [1] [%] | MAD-based z-score [1] | Viable cell density (%) (HEK-CMV-Luc2-Hygro cells) | per cell luciferase yield (%) (HEK-CMV-Luc2-Hygro cells) | other results |
| --- | --- | --- | --- | --- | --- |
| CUGUGCGUGUGACAGCGGCUGA [miR-210-3p] | 183 | 3.2 |  |  |  |
| UGAGGUAGUAGGUUGUAUGGUU (listed as RNA, chemistry not given here; listed as Homo sapiens) [let-7c-5p, human miRNA mimic] | 168 | 2.6 |  |  |  |
| AACUGGCCUACAAAGUCCCAGU (listed as RNA, chemistry not given here; listed as Homo sapiens) [miR-193a-3p, human miRNA mimic] | 156 | 2.3 |  |  |  |
| CUAUACAGUCUACUGUCUUUCC (listed as RNA, chemistry not given here; listed as Homo sapiens) [let-7f-2-3p, human miRNA mimic] | 178 | 3.0 |  |  |  |
| UGGUUGUAGUCCGUGCGAGAAUA (listed as RNA, chemistry not given here; listed as Homo sapiens) [miR-1974, human miRNA mimic] | 201 | 3.6 |  |  |  |
| AAACCUGUGUUGUUCAAGAGUC (listed as RNA, chemistry not given here; listed as Homo sapiens) [miR-649, human miRNA mimic] | 150 | 2.0 |  |  |  |
| ACUCUUUCCCUGUUGCACUAC (listed as RNA, chemistry not given here; listed as Homo sapiens) [miR-130b-5p, human miRNA mimic] | 178 | 2.9 |  |  |  |
| UGAGUGCCGGUGCCUGCCCUG (listed as RNA, chemistry not given here; listed as Homo sapiens) [miR-1909-5p, human miRNA mimic] | 169 | 2.6 |  |  |  |
| AACUGGCCCUCAAAGUCCCGCU (listed as RNA, chemistry not given here; listed as Homo sapiens) [miR-193b-3p, human miRNA mimic] | 166 | 2.5 |  |  |  |
| CAUCCCUUGCAUGGUGGAGGG (listed as RNA, chemistry not given here; listed as Homo sapiens) [miR-188-5p, human miRNA mimic] | 177 | 2.9 |  |  |  |
| UCCGUCUCAGUUACUUUAUAGC (listed as RNA, chemistry not given here; listed as Homo sapiens) [miR-340-3p, human miRNA mimic] | 159 | 2.3 |  |  |  |
| GUGUGUGGAAAUGCUUCUGC (listed as RNA, chemistry not given here; listed as Homo sapiens) [miR-147a, human miRNA mimic] | 168 | 2.6 |  |  |  |
| GCUACUUCACAACACCAGGGCC (listed as RNA, chemistry not given here; listed as Homo sapiens) [miR-138-1-3p, human miRNA mimic] | 167 | 2.5 |  |  |  |
| CAGUGCAAUAGUAUUGUCAAAGC (listed as RNA, chemistry not given here; listed as Homo sapiens) [miR-301a-3p, human miRNA mimic] | 176 | 2.9 |  |  |  |
| 173 (GACUAUUGAUACCAAAACATT; chemistry not given here; listed as Homo sapiens) [compound 173] |  |  | 82.689 | 209.398 |  |
| 51 (CCAGCGAUACAACUCCUAUTT; chemistry not given here; listed as Homo sapiens) [compound 51] |  |  |  |  | per_cell (HEK-CMV-Luc2-Hygro cells): 176.8; VIA (HEK-CMV-Luc2-Hygro cells): 83.64 |
| 152 (CGAUGUUCGUGGACAUUCUTT; chemistry not given here; listed as Homo sapiens) [compound 152] |  |  | 80.013 | 234.608 |  |
| 190 (CUGUGGAAAAGAUACCGUATT; chemistry not given here; listed as Homo sapiens) [compound 190] |  |  | 95.368 | 152.850 |  |
| 43 (GCUAAGUCUUUUCCACAGUTT; chemistry not given here; listed as Homo sapiens) [compound 43] |  |  |  |  | per_cell (HEK-CMV-Luc2-Hygro cells): 155.4; VIA (HEK-CMV-Luc2-Hygro cells): 94.54 |

| Substance | Signal relative to negative control (%) [1] [%] | MAD-based z-score [1] | Viable cell density (%) (HEK-CMV-Luc2-Hygro cells) | per cell luciferase yield (%) (HEK-CMV-Luc2-Hygro cells) | other results |
| --- | --- | --- | --- | --- | --- |
| 137 (GAACCGUCGCUACAAGACATT; chemistry not given here; listed as Homo sapiens) [compound 137] |  |  | 88.616 | 212.905 |  |
| 45 (GGAUAUUGGAGGCUAGUCATT; chemistry not given here; listed as Homo sapiens) [compound 45] |  |  |  |  | per_cell (HEK-CMV-Luc2-Hygro cells): 157.9; VIA (HEK-CMV-Luc2-Hygro cells): 89.68 |
| 226 (CACUCGCAGUUAAUAUCAUTT; chemistry not given here; listed as Homo sapiens) [compound 226] |  |  |  |  | Luciferase activity (%) (HEK-CMV-Luc2-Hygro cells): 25.2%; Per cell luciferase yield (%) (HEK-CMV-Luc2-Hygro cells): 39.0%; Viable cell number (%) (HEK-CMV-Luc2-Hygro cells): 64.6% |
| 221 (CCACGACCAGCUUAAAGAATT; chemistry not given here; listed as Homo sapiens) [compound 221] |  |  |  |  | Luciferase activity (%) (HEK-CMV-Luc2-Hygro cells): 90.5%; Per cell luciferase yield (%) (HEK-CMV-Luc2-Hygro cells): 94.5%; Viable cell number (%) (HEK-CMV-Luc2-Hygro cells): 95.76% |
| 46 (CUCUUAUGGUAACCAAUGATT; chemistry not given here; listed as Homo sapiens) [compound 46] |  |  |  |  | per_cell (HEK-CMV-Luc2-Hygro cells): 160.2; VIA (HEK-CMV-Luc2-Hygro cells): 91.56 |
| 176 (GUUGCAAACUUAUCGAGGATT; chemistry not given here; listed as Homo sapiens) [compound 176] |  |  | 79.093 | 186.786 |  |
| 125 (GGAACACUAUGAUGAGUUUTT; chemistry not given here; listed as Homo sapiens) [compound 125] |  |  | 63.672 | 240.287 |  |
| 224 (GCAUGUAUCUGCUUGAUAUTT; chemistry not given here; listed as Homo sapiens) [compound 224] |  |  |  |  | Luciferase activity (%) (HEK-CMV-Luc2-Hygro cells): 20.0%; Per cell luciferase yield (%) (HEK-CMV-Luc2-Hygro cells): 39.4%; Viable cell number (%) (HEK-CMV-Luc2-Hygro cells): 50.7% |
| 129 (GCUAUUUCCAGCGAAUAUATT; chemistry not given here; listed as Homo sapiens) [compound 129] |  |  | 81.492 | 244.722 |  |
| 143 (GCAAAGAUAGCGAGAAAUATT; chemistry not given here; listed as Homo sapiens) [compound 143] |  |  | 75.599 | 193.846 |  |
| 159 (GGAGUUCUUUGAUGAGAAATT; chemistry not given here; listed as Homo sapiens) [compound 159] |  |  | 96.357 | 157.243 |  |
| 191 (GCCCACUAUUCUCAGCUCATT; chemistry not given here; listed as Homo sapiens) [compound 191] |  |  | 66.121 | 214.156 |  |
| 216 (GGGAAUAGUCAGAGGGAUCTT; chemistry not given here; listed as Homo sapiens) [compound 216] |  |  |  |  | Luciferase activity (%) (HEK-CMV-Luc2-Hygro cells): 92.8%; Per cell luciferase yield (%) (HEK-CMV-Luc2-Hygro cells): 90.4%; Viable cell number (%) (HEK-CMV-Luc2-Hygro cells): 102.7% |
| 135 (CAGGUAGUGUAAGCCCUCATT; chemistry not given here; listed as Homo sapiens) [compound 135] |  |  | 66.872 | 302.994 |  |
| 206 (GCUCCUCUGUUACCACAGATT; chemistry not given here; listed as Homo sapiens) [compound 206] |  |  | 91.526 | 179.268 |  |
| 183 (CAACAGAUCAGAGAACAAATT; chemistry not given here; listed as Homo sapiens) [compound 183] |  |  | 92.429 | 156.418 |  |
| 60 (GGCGAAUGCUCCUGACUAATT; chemistry not given here; listed as Homo sapiens) [compound 60] |  |  |  |  | per_cell (HEK-CMV-Luc2-Hygro cells): 157; VIA (HEK-CMV-Luc2-Hygro cells): 103.9 |
| 64 (GAUCGUUUGAGAGAACAAATT; chemistry not given here; listed as Homo sapiens) [compound 64] |  |  |  |  | per_cell (HEK-CMV-Luc2-Hygro cells): 210.3; VIA (HEK-CMV-Luc2-Hygro cells): 77.11 |
| 189 (GAACAAAAUAGACCUCUUATT; chemistry not given here; listed as Homo sapiens) [compound 189] |  |  | 101.897 | 162.677 |  |
